Results: US8735584B2 (Merck Patent GmbH, priority 2008, dated 2014)

Legend:
Type in all cases: biochemical
[1] = target: T1, GST-Aurora A (Homo sapiens, UniProt O14965); assay: Aurora A IC50, Caliper LC3000 mobility shift assay; conditions: LC3000 method; 15 uM ATP (the KM value); read-out: Aurora Kinase A Activity (IC50)
T1 construct: N-terminal GST fusion with full length Aurora A (1-403 amino acids); purchased Carna Biosciences 05-101
T1 sequence (O14965 1-403): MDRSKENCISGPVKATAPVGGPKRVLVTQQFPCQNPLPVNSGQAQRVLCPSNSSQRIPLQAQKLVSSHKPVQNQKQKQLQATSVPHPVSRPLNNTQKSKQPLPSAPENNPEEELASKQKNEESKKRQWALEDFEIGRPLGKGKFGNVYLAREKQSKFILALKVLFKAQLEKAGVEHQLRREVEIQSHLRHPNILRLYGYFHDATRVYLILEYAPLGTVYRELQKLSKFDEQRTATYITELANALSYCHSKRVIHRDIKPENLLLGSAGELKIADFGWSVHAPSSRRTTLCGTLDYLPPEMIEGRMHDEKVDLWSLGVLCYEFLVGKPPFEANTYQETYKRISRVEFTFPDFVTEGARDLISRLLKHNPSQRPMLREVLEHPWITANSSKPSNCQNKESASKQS
Method in brief: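 Readout: percent conversion of FITC-LRRASLG (1 uM) to phosphopeptide, resolved electrophoretically on a Caliper LC3000, fitted against inhibitor concentration for IC50. Reaction: N-terminal GST full-length Aurora A, ATP at its KM (15 uM), pH 7.5 HEPES with MgCl2/DTT, 25 C for 90 min.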

[2] = target: T2, p38a (Homo sapiens, UniProt Q16539); assay: Desktop Profiler kinase panel, p38a; conditions: 10 micromolar concentration of the compound; read-out: Percent Inhibition p38a
T2 construct: purchased Caliper Life Sciences
Experimental: (§1) The Aurora assays described here are performed on two Caliper Life Sciences systems: the LC3000 and the Desktop Profiler. These provide data on enzyme activity via measurement of the relative amounts of phosphorylated or unphosphorylated fluorescently labelled substrate peptide at the end of an enzymatic reaction. These different states of peptide are resolved by applying a potential difference across the sample. The presence of the charged phosphate group on the product (as opposed to the substrate) causes a different peptide mobility between the two peptides. This is visualized by excitation of the fluorescent label on the substrate and product peptides and represented as peaks within the analysis software.
(§2) The Desktop Profiler utilizes the same principle as the LC3000 for calculating percentage conversion of a substrate to product. Caliper Life Sciences provides proprietary flash frozen pre-made 384 well plates containing selected kinases. Each column in the 384 well plate contains a particular selected kinase. A second plate, the ‘substrate plate’ contains a mix of fluorescently labeled peptide substrate and ATP. […]
(§3) Reading of the plate in the Profiler is identical to the LC3000, and the ratio between substrate and product peaks provides the activity of the enzyme in that well. […]

[3] = target: T3, MET (Homo sapiens, UniProt P08581); assay: Desktop Profiler kinase panel, MET; conditions: 10 micromolar concentration of the compound; read-out: Percent Inhibition MET
T3 construct: purchased Caliper Life Sciences
Experimental: as §1, §2, §3

[4] = target: T4, PKCz (Homo sapiens, UniProt Q05513); assay: Desktop Profiler kinase panel, PKCz; conditions: 10 micromolar concentration of the compound; read-out: Percent Inhibition PKCz
T4 construct: purchased Caliper Life Sciences
Experimental: as §1, §2, §3

T4 sequence (Q05513 whole entry): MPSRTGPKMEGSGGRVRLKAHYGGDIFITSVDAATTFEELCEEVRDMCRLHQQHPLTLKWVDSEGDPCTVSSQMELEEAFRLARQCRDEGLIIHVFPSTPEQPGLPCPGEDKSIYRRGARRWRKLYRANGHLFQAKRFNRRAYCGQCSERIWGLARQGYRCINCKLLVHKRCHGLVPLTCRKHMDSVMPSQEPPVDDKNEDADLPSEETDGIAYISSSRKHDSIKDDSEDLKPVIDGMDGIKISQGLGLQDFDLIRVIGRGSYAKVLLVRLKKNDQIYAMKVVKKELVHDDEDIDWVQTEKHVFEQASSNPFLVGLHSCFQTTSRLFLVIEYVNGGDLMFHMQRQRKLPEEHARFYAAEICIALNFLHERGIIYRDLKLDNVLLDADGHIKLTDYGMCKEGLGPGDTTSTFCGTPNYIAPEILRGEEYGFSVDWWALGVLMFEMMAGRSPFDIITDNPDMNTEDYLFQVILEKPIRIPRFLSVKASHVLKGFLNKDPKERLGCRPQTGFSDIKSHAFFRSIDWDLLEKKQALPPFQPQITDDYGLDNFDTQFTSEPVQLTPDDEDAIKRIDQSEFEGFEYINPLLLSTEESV
T3 sequence (P08581 25-1390): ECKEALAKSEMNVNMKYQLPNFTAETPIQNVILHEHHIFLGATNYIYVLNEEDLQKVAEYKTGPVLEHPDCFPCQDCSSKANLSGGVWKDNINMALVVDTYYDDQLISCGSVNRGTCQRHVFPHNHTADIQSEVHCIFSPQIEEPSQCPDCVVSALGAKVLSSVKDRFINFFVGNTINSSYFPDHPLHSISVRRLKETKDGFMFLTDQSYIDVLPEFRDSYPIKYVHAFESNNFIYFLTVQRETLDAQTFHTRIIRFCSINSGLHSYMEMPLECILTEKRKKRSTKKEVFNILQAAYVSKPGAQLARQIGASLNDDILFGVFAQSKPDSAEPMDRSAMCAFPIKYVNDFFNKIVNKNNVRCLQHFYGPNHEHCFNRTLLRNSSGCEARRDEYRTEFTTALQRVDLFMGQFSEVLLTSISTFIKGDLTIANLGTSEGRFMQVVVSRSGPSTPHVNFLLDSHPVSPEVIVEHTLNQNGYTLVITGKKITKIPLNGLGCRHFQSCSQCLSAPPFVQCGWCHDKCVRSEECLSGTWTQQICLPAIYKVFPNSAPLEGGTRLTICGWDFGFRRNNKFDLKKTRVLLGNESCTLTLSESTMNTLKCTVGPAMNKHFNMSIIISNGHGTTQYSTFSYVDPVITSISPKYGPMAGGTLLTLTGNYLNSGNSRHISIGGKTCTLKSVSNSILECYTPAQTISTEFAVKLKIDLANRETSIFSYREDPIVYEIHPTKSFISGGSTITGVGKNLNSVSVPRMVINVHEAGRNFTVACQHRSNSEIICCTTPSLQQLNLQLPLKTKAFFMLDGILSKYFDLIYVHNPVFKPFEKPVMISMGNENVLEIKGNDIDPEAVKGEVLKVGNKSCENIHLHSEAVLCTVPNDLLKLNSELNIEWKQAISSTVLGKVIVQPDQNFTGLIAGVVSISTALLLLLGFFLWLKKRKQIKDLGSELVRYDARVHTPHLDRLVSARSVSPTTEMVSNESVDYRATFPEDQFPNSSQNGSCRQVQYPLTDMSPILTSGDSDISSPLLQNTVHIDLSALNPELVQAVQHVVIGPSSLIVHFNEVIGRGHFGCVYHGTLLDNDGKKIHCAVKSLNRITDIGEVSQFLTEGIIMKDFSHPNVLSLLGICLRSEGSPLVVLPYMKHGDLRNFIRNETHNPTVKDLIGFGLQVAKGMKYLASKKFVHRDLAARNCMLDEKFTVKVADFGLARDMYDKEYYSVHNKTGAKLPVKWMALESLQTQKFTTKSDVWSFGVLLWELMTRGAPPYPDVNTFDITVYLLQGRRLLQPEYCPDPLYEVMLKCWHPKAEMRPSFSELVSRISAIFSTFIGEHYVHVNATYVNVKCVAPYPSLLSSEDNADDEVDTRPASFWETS
T2 sequence (Q16539 whole entry): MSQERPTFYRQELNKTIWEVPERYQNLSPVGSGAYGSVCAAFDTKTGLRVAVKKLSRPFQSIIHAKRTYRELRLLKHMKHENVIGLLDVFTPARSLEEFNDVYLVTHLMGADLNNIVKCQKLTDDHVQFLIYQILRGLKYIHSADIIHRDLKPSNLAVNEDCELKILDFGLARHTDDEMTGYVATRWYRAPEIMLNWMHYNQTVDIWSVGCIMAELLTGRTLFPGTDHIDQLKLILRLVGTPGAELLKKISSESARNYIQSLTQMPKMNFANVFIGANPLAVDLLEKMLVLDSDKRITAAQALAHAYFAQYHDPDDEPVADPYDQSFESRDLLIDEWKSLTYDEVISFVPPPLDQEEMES

Structure (SMILES) | IC50 [1] [nM] | inhibition at 10 µM [2] [%] | inhibition at 10 µM [3] [%] | inhibition at 10 µM [4] [%]
O=c1[nH]c2ncccc2c2cc(Nc3cccc(F)c3)ccc12 [Example 31, 9-(3-Fluoro-phenylamino)-5H-benzo[c][1,8]naphthyridin-6-one] | > 100 |  |  | 
CC(=O)Nc1ccc(Oc2ccc3c(=O)[nH]c4ncccc4c3c2)cc1 [Example 81, N-[4-(6-Oxo-5,6-dihydro-benzo[c][1,8]naphthyridin-9-yloxy)-phenyl]-acetamide] |  | 50 to 70 | > 90 | 50 to 70
